Data published in patent US7915238B2, “Immunomodulatory compounds and methods of use thereof” (Eisai R & D Management Co., Ltd., priority 1999, dated 2011).

Tests used:
THP-1 cells = experiment: TNF-alpha promoter secreted alkaline phosphatase (TNF-PLAP) reporter in THP-1 cells; assay type: cell-based, human
Protocol: Similar results can be obtained when compounds of the invention are tested in a cell-culture model. In this assay, compounds of the invention are tested for their ability to stimulate secretion of alkaline phosphatase from THP-1 cells that have been transfected with the gene for secreted alkaline phosphatase under the control of the TNF-alpha promoter, as described in detail in Goto et al., Molecular Pharmacology 49; 860-873 (1996). In this assay, however, the effects of removing serum^1—a condition that may more-likely mimic a subcutaneous environment—can be evaluated. As shown in FIG. 2 and described in Table 1, results from these assays indicate that compounds of the invention stimulate induction of genes under the control of the TNF-alpha promoter when added to cells in the absence as well as the presence of serum. ^1 This is important to determine if serum components such as lipopolysaccharide binding protein are necessary for drug activity.

Human Whole Blood = experiment: Cytokine release in human whole blood (ELISA); assay type: cell-based; conditions: for TNF-alpha release in whole blood at 10 μM compound (% of 10 ng/ml LPS response): compounds tested at 10 μM, compared to 10 ng/ml LPS, 3-hour incubation; for EC50: whole blood, vs. % of LPS at 10 ng/ml, read-out: WB ED50 vs LPS@ 10 ng/ml; for TNF-alpha release from blood-borne cells: FIG. 1
Protocol: The most readily available human system to test compound activity on monocytes/macrophages is in whole blood. Various concentrations of compounds of the invention were added as 10× stocks in 50 μl of Ca^++, Mg^++-free Hank's balanced salt solution (HBSS) followed by 50 μl of HBSS into 400 μl of heparinized whole blood obtained from normal volunteers (18-51 years old; 110-230 lb.) into the wells of plastic assay plates, for a total volume of 500 μl/well (final concentration of whole blood was 80%). After a 3-hour incubation with gentle shaking at 37° C. in a 5% CO2 atmosphere, the assay plates were centrifuged at 1000×g for 10 min. at 4° C. and plasma was drawn off and frozen at −80° C. Plasma samples were analyzed for TNF-alpha, IL-10, and IL-12 by ELISA (Genzyme Corp., Cambridge, Mass.). Each assay point was tested in triplicate.
This stimulatory activity can be compared to that of 10 ng/ml endotoxin (or LPS) present in similar incubations in the same assay.

normal mouse splenocytes = experiment: Cytokine release from murine splenocytes; assay type: cell-based, C57BL6 mice; conditions: 24 hours culture with test compound
Protocol: The ability of compounds to stimulate cytokine release from splenocytes can be assessed in a mouse model. Spleen cells harvested from C57BL6 mice are cultured for 24 hours in RPMI 1640 cell culture medium containing 5% FBS, 1 mM sodium pyruvate, 2 mM L-glutamine, 100 U/ml penicillin/streptomycin and 50 μM beta-mercaptoethanol, various concentrations of test compound for 20-24 hours, after which the cell culture supernatant is tested for the presence of cytokines.
Spleen cells harvested from mice were cultured for 24 house with test compound and the supernatant was tested for release of cytokines.

EC50 (Human Whole Blood)	SMILES	TNF-alpha release in whole blood at 10 μM compound (% of 10 ng/ml LPS response) (Human Whole Blood)	other results
	CCCCCC/C=C\CCCC(=O)O[C@H](CCCCCCC)CCOCC(COP(=O)([O-])OCCNC(=O)CCC(=O)NCCOP(=O)([O-])OCC(COCC[C@@H](CCCCCCC)OC(=O)CCC/C=C\CCCCCC)NC(=O)CC(=O)CCCCCCCCCCC)NC(=O)CC(=O)CCCCCCCCCCC.[Na+].[Na+] (stereo partly drawn) [compound 111233]		THP-1 cell Stimulation (% of compound 100 at 10 μM) +serum (THP-1 cells): 141 % of compound 100 at 10 μM
	CCCCCC/C=C\CCCC(=O)O[C@H](CCCCCCC)CCOCC(COP(=O)([O-])OCCNC(=O)NCCOP(=O)([O-])OCC(COCC[C@@H](CCCCCCC)OC(=O)CCC/C=C\CCCCCC)NC(=O)CC(=O)CCCCCCCCCCC)NC(=O)CC(=O)CCCCCCCCCCC.[Na+].[Na+] (stereo partly drawn) [compound 111232]	158 % of LPS	THP-1 cell Stimulation (% of compound 100 at 10 μM) +serum (THP-1 cells): 155 % of compound 100 at 10 μM; THP-1 cell Stimulation (% of compound 100 at 10 μM) −serum (THP-1 cells): 225 % of compound 100 at 10 μM
290 nM	CCCCCC/C=C\CCCC(=O)O[C@H](CCCCCCC)CCOCC(COP(=O)([O-])OCCNC(=O)CCCCCCCCC(=O)NCCOP(=O)([O-])OCC(COCC[C@@H](CCCCCCC)OC(=O)CCC/C=C\CCCCCC)NC(=O)CC(=O)CCCCCCCCCCC)NC(=O)CC(=O)CCCCCCCCCCC.[Na+].[Na+] (stereo partly drawn) [compound 111231]		THP-1 cell Stimulation (% of compound 100 at 10 μM) +serum (THP-1 cells): 17 % of compound 100 at 10 μM
	CCCCCC/C=C\CCCC(=O)O[C@H](CCCCCCC)CCOCC(COP(=O)([O-])OCCNC(=O)CCCCCCCCC(=O)NCCOP(=O)([O-])OCC(COCC[C@@H](CCCCCCC)OC(=O)CCC/C=C\CCCCCC)NC(=O)CC(=O)CCCCCCCCCCC)NC(=O)CC(=O)CCCCCCCCCCC.[Na+].[Na+] (stereo partly drawn) [ER 111231]		IL-10 release from splenocytes (normal mouse splenocytes): stimulated; interferon-gamma release from splenocytes (normal mouse splenocytes): stimulated
660 nM	CCCCCCCCCCCCCC(=O)N[C@H](COCC[C@H](CCCCCCC)CCCCCCCCCCCC)COP(=O)(O)OCCNC(=O)NCCOP(=O)(O)OC[C@@H](COCC[C@H](CCCCCCC)CCCCCCCCCCCC)NC(=O)CCCCCCCCCCCCC [compound 804130]		
890 nM	CCCCCCCCCCCCCC(=O)O[C@@H](COCC[C@@H](CCCCCCC)OC(=O)CCCCCCCCCCC)COP(=O)([O-])OCCNC(=O)CC(=O)NCCOP(=O)([O-])OC[C@H](COCC[C@@H](CCCCCCC)OC(=O)CCCCCCCCCCC)OC(=O)CCCCCCCCCCCCC.[Na+].[Na+] [compound 803059]	2 % of LPS	
	CCCCCC/C=C\CCCC(=O)O[C@H](CCCCCCC)CC(=O)NC(COCC[C@H](O)CCCCCCC)COP(=O)([O-])OCCNC(=O)c1ccc(C(=O)NCCOP(=O)([O-])OCC(COCC[C@H](O)CCCCCCC)NC(=O)C[C@@H](CCCCCCC)OC(=O)CCC/C=C\CCCCCC)cc1.[Na+].[Na+] (stereo partly drawn) [compound 112861]	0 % of LPS	
	CCCCCC/C=C\CCCC(=O)O[C@H](CCCCCCC)CCOCC(COP(=O)([O-])OCCNC(=O)NCCOP(=O)([O-])OCC(COCC[C@@H](CCCCCCC)OC(=O)CCC/C=C\CCCCCC)NC(=O)CCCCCCCCCCCCC)NC(=O)CCCCCCCCCCCCC.[Na+].[Na+] (stereo partly drawn) [ER 119328]		TNF-alpha release from blood-borne cells (Human Whole Blood): stimulate blood-borne cells to release TNF-alpha
1230 nM	CCCCCC/C=C\CCCC(=O)O[C@H](CCCCCCC)CCOCC(COP(=O)([O-])OCCNC(=O)CC(=O)NCCOP(=O)([O-])OCC(COCC[C@@H](CCCCCCC)OC(=O)CCC/C=C\CCCCCC)NC(=O)C[C@H](O)CCCCCCCCCCC)NC(=O)C[C@H](O)CCCCCCCCCCC.[Na+].[Na+] (stereo partly drawn) [compound 119001]	113 % of LPS	
	CCCCCC/C=C\CCCC(=O)O[C@H](CCCCCCC)CCOCC(COP(=O)([O-])OCCNC(=O)C(Cc1ccc(O)cc1)C(=O)NCCOP(=O)([O-])OCC(COCC[C@@H](CCCCCCC)OC(=O)CCC/C=C\CCCCCC)NC(=O)CC(=O)CCCCCCCCCCC)NC(=O)CC(=O)CCCCCCCCCCC.[Na+].[Na+] (stereo partly drawn) [compound 118023]	63 % of LPS	
> 10000 nM	CCCCCCCCCCCCCC(=O)N[C@H](COCC[C@H](CCCCCCC)NC(=O)CCCCCCCCCCC)COP(=O)(O)OCCNC(=O)NCCOP(=O)(O)OC[C@@H](COCC[C@H](CCCCCCC)NC(=O)CCCCCCCCCCC)NC(=O)CCCCCCCCCCCCC [compound 804253]		
40 nM	CCCCCCCCCCCC(=O)CC(=O)NC(COCC[C@@H](CCCCCCC)OC(=O)CCCCCCCCCCC)COP(=O)([O-])OCCNC(=O)NCCOP(=O)([O-])OCC(COCC[C@@H](CCCCCCC)OC(=O)CCCCCCCCCCC)NC(=O)CC(=O)CCCCCCCCCCC.[Na+].[Na+] (stereo partly drawn) [compound 112066]	162 % of LPS	THP-1 cell Stimulation (% of compound 100 at 10 μM) +serum (THP-1 cells): 330 % of compound 100 at 10 μM
1060 nM	CCCCCCCCCCCCCCN(C(C)=O)[C@H](COCC[C@@H](CCCCCCC)OC(=O)CCCCCCCCCCC)COP(=O)(O)OCCNC(=O)NCCOP(=O)(O)OC[C@@H](COCC[C@@H](CCCCCCC)OC(=O)CCCCCCCCCCC)N(CCCCCCCCCCCCCC)C(C)=O [compound 804339]		
	CCCCCC/C=C\CCCC(=O)O[C@H](CCCCCCC)CCOCC(COP(=O)([O-])OCCNC(=O)C(CCCCNC(=O)OC(C)(C)C)C(=O)NCCOP(=O)([O-])OCC(COCC[C@@H](CCCCCCC)OC(=O)CCC/C=C\CCCCCC)NC(=O)CCCCCCCCCCCCC)NC(=O)CCCCCCCCCCCCC.[Na+].[Na+] (stereo partly drawn) [compound 119521]	103 % of LPS	
2200 nM	CCCCCCCCCCCC(=O)NCC(=O)N[C@H](COCC[C@@H](CCCCCCC)OC(=O)CCCCCCCCCCC)COP(=O)(O)OCCNC(=O)NCCOP(=O)(O)OC[C@@H](COCC[C@@H](CCCCCCC)OC(=O)CCCCCCCCCCC)NC(=O)CNC(=O)CCCCCCCCCCC [compound 804221]		
> 10000 nM	CCCCCCCCCCCCCC(=O)N[C@H](COCC[C@@H](CCCCCCC)OC(=O)CCCCCCCCCCC)COP(=O)(O)OCCNC(=O)CC(=O)NCCOP(=O)(O)OC[C@H](COCC[C@@H](CCCCCCC)OC(=O)CCCCCCCCCCC)NC(=O)CCCCCCCCCCCCC [compound 803731]		
	CCCCCCCCCCCCCC(=O)NC(COCC[C@@H](CCCCCCC)OC(=O)CCCCCCCCCCC)COP(=O)([O-])OCCNC(=O)CC(=O)NCCOP(=O)([O-])OCC(COCC[C@@H](CCCCCCC)OC(=O)CCCCCCCCCCC)NC(=O)CCCCCCCCCCCCC.[Na+].[Na+] (stereo partly drawn) [compound 803056]	151 ± 42 % of LPS	
	CCCCCCCCCCCCCC(=O)O[C@@H](COCC[C@@H](CCCCCCC)OC(=O)CCCCCCCCCCC)COP(=O)([O-])OCCNC(=O)NCCOP(=O)([O-])OC[C@H](COCC[C@@H](CCCCCCC)OC(=O)CCCCCCCCCCC)OC(=O)CCCCCCCCCCCCC.[Na+].[Na+] [compound 803592]	15 % of LPS	
	CCCCCC/C=C\CCCC(=O)O[C@H](CCCCCCC)CCOCC(COP(=O)([O-])OCCNC(=O)CC(=O)NCCOP(=O)([O-])OCC(COCC[C@@H](CCCCCCC)OC(=O)CCC/C=C\CCCCCC)NC(=O)CCCCCCCCCCC)NC(=O)CCCCCCCCCCC.[Na+].[Na+] (stereo partly drawn) [compound 118999]	105 % of LPS	
	CCCCCCCCCCCCCC(=O)NC(COCC[C@@H](CCCCCCC)OC(=O)CCCCCCCCCCC)COP(=O)([O-])OCCNC(=O)NCCOP(=O)([O-])OCC(COCC[C@@H](CCCCCCC)OC(=O)CCCCCCCCCCC)NC(=O)CCCCCCCCCCCCC.[Na+].[Na+] (stereo partly drawn) [ER 119327]		TNF-alpha release from blood-borne cells (Human Whole Blood): stimulate blood-borne cells to release TNF-alpha

SMILES	EC50 (Human Whole Blood)	TNF-alpha release in whole blood at 10 μM compound (% of 10 ng/ml LPS response) (Human Whole Blood)	other results
CCCCCC/C=C\CCCC(=O)O[C@H](CCCCCCC)CCOCC(COP(=O)([O-])OCCNC(=O)CC(=O)NCCOP(=O)([O-])OCC(COCC[C@@H](CCCCCCC)OC(=O)CCC/C=C\CCCCCC)NC(=O)CC(=O)CCCCCCCCCCC)NC(=O)CC(=O)CCCCCCCCCCC.[Na+].[Na+] (stereo partly drawn) [compound 113651]	700 nM	133 ± 4.4 (n = 4) % of LPS	THP-1 cell Stimulation (% of compound 100 at 10 μM) +serum (THP-1 cells): 215 % of compound 100 at 10 μM; THP-1 cell Stimulation (% of compound 100 at 10 μM) −serum (THP-1 cells): 254 % of compound 100 at 10 μM
CCCCCCCCCCCCCC(=O)N[C@H](COCC[C@@H](CCCCCCC)OC(=O)CCCCCCCCCCC)COP(=O)(O)OCCNC(=O)NCCOP(=O)(O)OC[C@@H](COCC[C@@H](CCCCCCC)OC(=O)CCCCCCCCCCC)NC(=O)CCCCCCCCCCCCC [ER 804678]	18 nM		
